Source: patent US10202361B2, “Pyridazinones as herbicides” (E I DU PONT DE NEMOURS AND COMPANY, priority 2014, dated 2019)

How the values were obtained:
Experiment in all cases: Test D pre-/postemergence controlled growth environment herbicide test
Assay type in all cases: in vivo
Conditions in all cases: scale 0 to 100
[1] = tested on: chamomile (scentless chamomile, Matricaria inodora)
Source text: (§1) Seeds of plant species selected from bluegrass (annual bluegrass, Poa annua), blackgrass (Alopecurus myosuroides), canarygrass (Phalaris minor), chickweed (common chickweed, Stellaria media), galium (catchweed bedstraw, Galium aparine), downy bromegrass (Bromus tectorum), field poppy (Papaver rhoeas), field violet (Viola arvensis), foxtail, green (green foxtail, Setaria viridis), deadnettle (henbit deadnettle, Lamium amplexicaule), ryegrass, Italian (Italian ryegrass, Lolium multiflorum), kochia (Kochia scoparia), lambsquarters (Chenopodium album), oilseed rape (Brassica napus), pigweed (Amaranthus retroflexus), chamomile (scentless chamomile, Matricaria inodora), Russian thistle (Salsola kali), speedwell (bird's-eye speedwell, Veronica persica), barley, spring (spring barley, Hordeum vulgare), wheat, spring (spring wheat, Triticum aestivum), buckwheat, wild (wild buckwheat, Polygonum convolvulus), mustard, wild (wild mustard, Sinapis arvensis), oat, wild (wild oat, Avena fatua), radish, wild (wild radish, Raphanus raphanistrum), windgrass (Apera spica-venti), barley, winter (winter barley, Hordeum vulgare), and wheat, winter (winter wheat, Triticum aestivum) were planted into a silt loam soil and treated preemergence with test chemicals formulated in a non-phytotoxic solvent mixture which included a surfactant.
(§2) At the same time, these species were planted in pots containing Redi-Earth® planting medium (Scotts Company, 14111 Scottslawn Road, Marysville, Ohio 43041) comprising spaghnum peat moss, vermiculite, wetting agent and starter nutrients and treated with postemergence applications of the test chemicals formulated in the same manner. Plants ranged in height from 2 to 18 cm (1- to 4-leaf stage). Treated plants and controls were maintained in a controlled growth environment for 14 to 21 d after which time all species were compared to controls and visually evaluated. Plant response ratings, summarized in Table D, are based on a scale of 0 to 100 where 0 is no effect and 100 is complete control. A dash (-) response means no test result.

[2] = tested on: bluegrass (annual bluegrass, Poa annua)
Source text: as §1, §2

[3] = tested on: deadnettle (henbit deadnettle, Lamium amplexicaule)
Source text: as §1, §2

[4] = tested on: wheat, winter (winter wheat, Triticum aestivum)
Source text: as §1, §2

[5] = tested on: windgrass (Apera spica-venti)
Source text: as §1, §2

[6] = tested on: barley, winter (winter barley, Hordeum vulgare)
Source text: as §1, §2

[7] = tested on: ryegrass, Italian (Italian ryegrass, Lolium multiflorum)
Source text: as §1, §2

[8] = tested on: wheat, spring (spring wheat, Triticum aestivum)
Source text: as §1, §2

[9] = tested on: barley, spring (spring barley, Hordeum vulgare)
Source text: as §1, §2

[10] = tested on: galium (catchweed bedstraw, Galium aparine)
Source text: as §1, §2

[11] = tested on: downy bromegrass (Bromus tectorum)
Source text: as §1, §2

Question: Which results are given for Cc1cc(=O)n(-c2ccc(F)cc2)nc1Cc1ccnc(C(F)(F)F)c1 [Compound 1, 2-(4-fluorophenyl)-5-methyl-6-[[2-(trifluoromethyl)-4-pyridinyl]methyl]-3(2H)-pyridazinone]?
Answer: Plant response rating ([1]; Postemergence, 31 g ai/ha): 30; Plant response rating ([1]; Postemergence, 62 g ai/ha): 30; Plant response rating ([1]; Postemergence, 125 g ai/ha): 30; Plant response rating ([1]; Postemergence, 250 g ai/ha): 60; Plant response rating ([1]; Postemergence, 500 g ai/ha): 50; Plant response rating ([1]; Preemergence, 125 g ai/ha): 70; Plant response rating ([1]; Preemergence, 250 g ai/ha): 90; Plant response rating ([1]; Preemergence, 500 g ai/ha): 100; Plant response rating ([2]; Postemergence, 31 g ai/ha): 5; Plant response rating ([2]; Postemergence, 62 g ai/ha): 5; Plant response rating ([2]; Postemergence, 125 g ai/ha): 10; Plant response rating ([2]; Postemergence, 250 g ai/ha): 10; Plant response rating ([2]; Postemergence, 500 g ai/ha): 10; Plant response rating ([2]; Preemergence, 31 g ai/ha): 0; Plant response rating ([2]; Preemergence, 62 g ai/ha): 0; Plant response rating ([2]; Preemergence, 125 g ai/ha): 0; Plant response rating ([2]; Preemergence, 250 g ai/ha): 15; Plant response rating ([2]; Preemergence, 500 g ai/ha): 45; Plant response rating ([3]; Postemergence, 31 g ai/ha): 10; Plant response rating ([3]; Postemergence, 62 g ai/ha): 25; Plant response rating ([3]; Postemergence, 125 g ai/ha): 35; Plant response rating ([3]; Postemergence, 250 g ai/ha): 50; Plant response rating ([3]; Postemergence, 500 g ai/ha): 75; Plant response rating ([3]; Preemergence, 31 g ai/ha): 20; Plant response rating ([3]; Preemergence, 62 g ai/ha): 40; Plant response rating ([3]; Preemergence, 125 g ai/ha): 100; Plant response rating ([3]; Preemergence, 250 g ai/ha): 100; Plant response rating ([3]; Preemergence, 500 g ai/ha): 100; Plant response rating ([4]; Postemergence, 31 g ai/ha): 0; Plant response rating ([4]; Postemergence, 62 g ai/ha): 0; Plant response rating ([4]; Postemergence, 125 g ai/ha): 5; Plant response rating ([4]; Postemergence, 250 g ai/ha): 5; Plant response rating ([4]; Postemergence, 500 g ai/ha): 10; Plant response rating ([4]; Preemergence, 31 g ai/ha): 0; Plant response rating ([4]; Preemergence, 62 g ai/ha): 0; Plant response rating ([4]; Preemergence, 125 g ai/ha): 10; Plant response rating ([4]; Preemergence, 250 g ai/ha): 50; Plant response rating ([4]; Preemergence, 500 g ai/ha): 70; Plant response rating ([5]; Postemergence, 31 g ai/ha): 20; Plant response rating ([5]; Postemergence, 62 g ai/ha): 20; Plant response rating ([5]; Postemergence, 125 g ai/ha): 20; Plant response rating ([5]; Postemergence, 250 g ai/ha): 20; Plant response rating ([5]; Postemergence, 500 g ai/ha): 20; Plant response rating ([5]; Preemergence, 31 g ai/ha): 0; Plant response rating ([5]; Preemergence, 62 g ai/ha): 20; Plant response rating ([5]; Preemergence, 125 g ai/ha): 100; Plant response rating ([5]; Preemergence, 250 g ai/ha): 100; Plant response rating ([5]; Preemergence, 500 g ai/ha): 100; Plant response rating ([6]; Postemergence, 31 g ai/ha): 0; Plant response rating ([6]; Postemergence, 62 g ai/ha): 0; Plant response rating ([6]; Postemergence, 125 g ai/ha): 0; Plant response rating ([6]; Postemergence, 250 g ai/ha): 10; Plant response rating ([6]; Postemergence, 500 g ai/ha): 15; Plant response rating ([6]; Preemergence, 31 g ai/ha): 0; Plant response rating ([6]; Preemergence, 62 g ai/ha): 5; Plant response rating ([6]; Preemergence, 125 g ai/ha): 5; Plant response rating ([6]; Preemergence, 250 g ai/ha): 40; Plant response rating ([6]; Preemergence, 500 g ai/ha): 60; Plant response rating ([7]; Postemergence, 31 g ai/ha): 0; Plant response rating ([7]; Postemergence, 62 g ai/ha): 0; Plant response rating ([7]; Postemergence, 125 g ai/ha): 5; Plant response rating ([7]; Postemergence, 250 g ai/ha): 10; Plant response rating ([7]; Postemergence, 500 g ai/ha): 10; Plant response rating ([7]; Preemergence, 31 g ai/ha): 0; Plant response rating ([7]; Preemergence, 62 g ai/ha): 0; Plant response rating ([7]; Preemergence, 125 g ai/ha): 10; Plant response rating ([7]; Preemergence, 250 g ai/ha): 20; Plant response rating ([7]; Preemergence, 500 g ai/ha): 60; Plant response rating ([8]; Postemergence, 31 g ai/ha): 0; Plant response rating ([8]; Postemergence, 62 g ai/ha): 5; Plant response rating ([8]; Postemergence, 125 g ai/ha): 5; Plant response rating ([8]; Postemergence, 250 g ai/ha): 10; Plant response rating ([8]; Postemergence, 500 g ai/ha): 10; Plant response rating ([8]; Preemergence, 31 g ai/ha): 0; Plant response rating ([8]; Preemergence, 62 g ai/ha): 0; Plant response rating ([8]; Preemergence, 125 g ai/ha): 10; Plant response rating ([8]; Preemergence, 250 g ai/ha): 15; Plant response rating ([8]; Preemergence, 500 g ai/ha): 75; Plant response rating ([9]; Postemergence, 31 g ai/ha): 0; Plant response rating ([9]; Postemergence, 62 g ai/ha): 0; Plant response rating ([9]; Postemergence, 125 g ai/ha): 5; Plant response rating ([9]; Postemergence, 250 g ai/ha): 10; Plant response rating ([9]; Postemergence, 500 g ai/ha): 10; Plant response rating ([9]; Preemergence, 31 g ai/ha): 0; Plant response rating ([9]; Preemergence, 62 g ai/ha): 5; Plant response rating ([9]; Preemergence, 125 g ai/ha): 5; Plant response rating ([9]; Preemergence, 250 g ai/ha): 30; Plant response rating ([9]; Preemergence, 500 g ai/ha): 70; Plant response rating ([10]; Postemergence, 31 g ai/ha): 30; Plant response rating ([10]; Postemergence, 62 g ai/ha): 30; Plant response rating ([10]; Postemergence, 125 g ai/ha): 45; Plant response rating ([10]; Postemergence, 250 g ai/ha): 70; Plant response rating ([10]; Postemergence, 500 g ai/ha): 90; Plant response rating ([10]; Preemergence, 31 g ai/ha): 0; Plant response rating ([10]; Preemergence, 62 g ai/ha): 10; Plant response rating ([10]; Preemergence, 250 g ai/ha): 70; Plant response rating ([10]; Preemergence, 500 g ai/ha): 100; Plant response rating ([11]; Postemergence, 31 g ai/ha): 0; Plant response rating ([11]; Postemergence, 62 g ai/ha): 0; Plant response rating ([11]; Postemergence, 125 g ai/ha): 10; Plant response rating ([11]; Postemergence, 250 g ai/ha): 15; Plant response rating ([11]; Postemergence, 500 g ai/ha): 25; Plant response rating ([11]; Preemergence, 31 g ai/ha): 0; Plant response rating ([11]; Preemergence, 62 g ai/ha): 0; Plant response rating ([11]; Preemergence, 125 g ai/ha): 20; Plant response rating ([11]; Preemergence, 250 g ai/ha): 25; Plant response rating ([11]; Preemergence, 500 g ai/ha): 25
